Experimental data published in patent publication US20070066595A1, “Selective estrogen receptor modulators” (priority 2004, published 2007).
Like-named read-outs stand apart in the source and are kept apart here.

Experiments:
[1] = system: immature (3 week old) female rats, estrogen-induced uterine weight; assay: 3-Day Rat Uterus Antagonist Assay; assay type: in vivo; details: 3 days, with E2 0.1 mg/kg; for inhibition of the estrogen-induced response: 1.0 mg/kg oral, uterine weight/body weight ratio
Source text: 3-Day Rat Uterus Antagonist Assay: This model for uterine antagonism utilizes immature (3 week old) female rats that are highly sensitive to estrogenic stimulation of the uterus given that their circulating estrogen levels are prepubertal. The uteri from immature rats are fully responsive to exogenous estrogen, yet are quiescent in the absence of exogenous estrogen. Administration of exogenous estrogen to immature rats produces a reliable elevation of uterine weight, which can be used to study uterine antagonist effects. The rats are treated with both estradiol and 4 different concentrations of a compound of the present invention for 3 days and then uterine wet weights are measured.
Nineteen to twenty-one day old (or 45-50 g) female rats are orally treated with E2 (0.1 mg/kg, a maximal stimulatory estrogenic stimulus for reliably increasing uterine weight) and 10, 1.0, 0.1 and 0.01 mg/kg test compound for 3 days, 6 rats per group. Test compounds are dissolved in 20% β-hydroxycyclodextrin and administered by oral gavage in a volume of 0.2 mL daily (15 min. prior to the ethynyl estradiol gavage). A vehicle control, E2 alone and E2+raloxifene are also done as controls. The animals are fasted overnight following the final dose. On the following morning, the animals are weighed, then euthanized (by carbon dioxide asphyxiation) and the uteri rapidly collected (via a mid-line ventral incision) and weighed.
Uterine weight/body weight ratios (UWR) are calculated for each animal. The percent inhibition of the estrogen-induced response is then calculated by the following formula: percent inhibition=100×(UWRestrogen−UWRtest compound/UWRestrogen−UWRcontrol). ED50 values are derived from a semi-log regression analysis of the linear aspect of the dose response curve. Both the UWR data and the percent inhibition data are statistically analyzed by one way analysis of variance (ANOVA) with post-hoc testing by Fisher's PLSD when indicated by a p<0.05. Statistical analyses are performed using the Statview® 4.0 software package.

[2] = system: Ishikawa human endometrial tumor cells; assay: Ishikawa Cell Proliferation Assay (alkaline phosphatase readout; agonist and antagonist modes); assay type: cell-based
Procedure: Ishikawa Cell Proliferation Assay: This assay measures cell proliferation (using an alkaline phosphatase readout) in both an agonist mode in the presence of a compound of the present invention alone, and in an antagonist mode in which the ability of a compound of the present invention to block estradiol stimulation of growth is measured.
Ishikawa human endometrial tumor cells are maintained in MEM (minimum essential medium, with Earle's salts and L-Glutamine, Gibco BRL, Gaithersburg, Md.), supplemented with 10% fetal bovine serum (FBS) (V/V), (Gibco BRL). One day prior to assay, growth media is changed to assay medium, DMEM/F-12 (3:1) (Dulbecco's Modified Eagle Medium: Nutrient Mixture F-12, 3:1 Mixture, phenol red-free, Gibco BRL) supplemented with 5% dextran coated charcoal stripped fetal bovine serum (DCC-FBS) (Hyclone, Logen, Utah), L-Glutamine (2 mM), MEM sodium pyruvate (1 mM), HEPES (N-[2-hydroxyethyl]piperazine-N′-[2-ethanesulfonic acid]2 mM) all from Gibco BRL). After an overnight incubation, Ishikawa cells are rinsed with Dulbecco's Phosphate Buffered Saline (1×) (D-PBS) without Ca^+2 and Mg^+2 (Gibco BRL), and trypsinized by a 3 minute incubation with 0.25% Trypsin/EDTA, phenol red-free (Gibco BRL). Cells are resuspended in assay medium and adjusted to 250,000 cells/mL. Approximately 25,000 cells in a 100 ul media are added to flat-bottom 96 wells microculture plates (Costar 3596) and incubated at 37° C. in a 5% CO2 humidified incubator for 24 hours. […]
For the antagonist mode, plates receive 25 μl/well of 6 nM E2 (β-Estradiol, Sigma, St. Louis, Mo.) followed by 25 μl/well of a diluted compound of the present invention (at 6× the final concentrations). […] After a 20-minute incubation, plates are read on a spectophotometer at 405 nm.
The data is fitted to a linear interpolation to derive EC50 (for agonist mode) or IC50 (for antagonist mode) values. For the antagonist mode, a % efficacy for each compound is calculated versus E2 (1 nM) alone. For the agonist mode, a % efficacy for each compound is calculated versus the response to tamoxifen.

[3] = system: mature F344 female rats, serum LH and estradiol; assay: 10-Day Rat Hormone (Ovarian Stimulation) Screen; assay type: in vivo; details: oral gavage 10 days; serum about 2 hours after 10th dose; RIA
Procedure: 10-Day Rat Hormone (Ovarian Stimulation) Screen: An initial, first screen for ovarian toxicity is conducted using a 10-day rat hormone study to measure estradiol and luteinizing hormone levels after compound administration. This screen is conducted by administering compound by oral gavage for 10 days to mature (9-10 week old) F344 female rats. Trunk blood is collected by rapid decapitation for evaluation of LH and estradiol levels approximately 2 hours after the 10th dose. Serum, obtained by centrifugation, is removed and stored frozen below −60° C. until assayed. Serum levels of LH and estradiol are measured using radioimmunoassay (RIA) methods.
Rat LH primary antibody and reference preparations (rat LH:RP-3) are obtained from Dr. A. F. Parlow, Director, Pituitary Hormones and Antisera Center, Harbor-UCLA Medical Center, Torrance, Calif. The LH assay upper limits of detection are 30 ng/mL and the lower limits of detection are 0.1 ng/mL for the 100 μl samples.
E2 Clinical Assays. DiaSorin s.r.l., Saluggia (Vercelli), Italy. The upper limit of detection is 1000 pg/mL and the lower limit of detection is 5 pg/mL.

## Cl.O=S1(=O)CCC(c2ccc3cc(O)ccc3c2Oc2ccc(OCCN3CCCCC3)cc2)CC1 [Example 10, 6-(1,1-Dioxo-hexahydro-1λ^6-thiopyran-4-yl)-5-[4-(2-piperidin-1-yl-ethoxy)-phenoxy]-naphthalen-2-ol Hydrochloride]
[1]
  inhibition of the estrogen-induced response: inhibit the estrogen-induced response

## Cl.O=S1(=O)CC=C(c2ccc3cc(O)ccc3c2Oc2ccc(OCCN3CCCCC3)cc2)CC1 [Example 9, 6-(1,1-Dioxo-1,2,3,6-tetrahydro-1λ^6-thiopyran-4-yl)-5-[4-(2-piperidin-1-yl-ethoxy)-phenoxy]-naphthalen-2-ol Hydrochloride]
[2]; agonist mode, versus the response to tamoxifen, read-out: relative % efficacy
  Emax: 19%
[2]; antagonist mode, block of estradiol stimulation
  IC50: 7.2 nM
[2]; antagonist mode, versus E2 (1 nM) alone, read-out: % efficacy (inhibition of the 1 nM estradiol response)
  Emax: 97.9%
[1]
  inhibition of the estrogen-induced response: inhibit the estrogen-induced response
[1]; oral
  % antagonism: 72.6%
  ED50: 0.17 mpk

## CS(=O)(=O)C1CC=C(c2ccc3cc(O)ccc3c2Oc2ccc(OCCN3CCCCC3)cc2)CC1.Cl (racemic) [Example 2, (+/−)-6-(4-Methanesulfonyl-cyclohex-1-enyl)-5-[4-(2-piperidin-1-yl-ethoxy)-phenoxy]-naphthalen-2-ol Hydrochloride]
[1]
  inhibition of the estrogen-induced response: inhibit the estrogen-induced response
[3]
  circulating LH levels: did not significantly elevate
  circulating estradiol levels: did not significantly elevate

## CS(=O)(=O)C1CCC(c2ccc3cc(O)ccc3c2Oc2ccc(OCCN3CCCCC3)cc2)CC1.Cl (stereo not drawn) [Example 3, 6-cis-and-trans-(4-Methanesulfonyl-cyclohexyl)-5-[4-(2-piperidin-1-yl-ethoxy)-phenoxy]-naphthalen-2-ol Hydrochloride]
[1]
  inhibition of the estrogen-induced response: inhibit the estrogen-induced response
